# Columns and labels:
# [1] = test system: Caco-2 cells; test: C1-BODIPY-C12 fatty acid uptake inhibition in Caco-2 cells; type: cell-based, human; conditions: for IC50: Homo sapiens, Caco-2, read-out: Caco-2 IC50; for % Transport Standard Assay: compound 40 μM, Caco-2 cells, % of no-compound control, mean ± SD
# [2] = test system: HepG2 cells; test: C1-BODIPY-C12 fatty acid uptake inhibition in HepG2 cells; type: cell-based; conditions: Homo sapiens, HepG2, read-out: HepG2 IC50
# [3] = test system: 3T3-L1 adipocytes; test: C1-BODIPY-C12 fatty acid uptake inhibition in 3T3-L1 adipocytes; type: cell-based; conditions: Mus musculus, 3T3-L1, read-out: 3T3-L1 Adipocytes IC50
# [4] = test system: Caco-2 cells; test: Reversibility of fatty acid uptake inhibition after 24 h recovery; type: cell-based, human; conditions: compound 40 μM for 1 h, washed, mean ± SD
# [5] = test system: Caco-2 cells; test: Glucose; type: cell-based, human; conditions: 1 h preincubation
# [6] = test system: long chain acyl-CoA synthetase (Acsl); test: Oleoyl-CoA synthetase; type: biochemical, human; conditions: Caco-2 cells pretreated 1 h; for Oleoyl CoA synthetase activity after compound treatment: rinsed, total cell extracts
# [7] = test system: Caco-2 cells; test: MTT cytotoxicity assay in Caco-2 cells; conditions: 24 h
# [8] = 50 μM, Caco-2 cells (10 times the IC50 dosage)
Compound,IC50 [1] [µM],% Transport Standard Assay [1] [%],IC50 [2] [µM],IC50 [3] [µM],% Transport after 24 Hour Recovery [4] [%],2-NBDG glucose transport ([5]; 20 μM),"Inhibition of oleoyl CoA synthetase activity ([6]; 50 μM (10 times the IC50), cell extracts)","Cellular toxicity (MTT assay) [7, 8]",Oleoyl CoA synthetase activity after compound treatment [6],2-NBDG glucose transport ([5]; 50 μM),"Cellular toxicity (MTT assay) ([7]; 100 μM, Caco-2 cells)"
"COc1cc(/C=C2/SC(=S)N(c3cccc(Cl)c3)C2=O)cc(Br)c1O [CB-2, (5E)-5-[(3-bromo-4-hydroxy-5-methoxyphenyl)methylene]-3-(3-chlorophenyl)-2-thioxothiazolidin-4-one]",3.99 ± 0.32,46 ± 3,7.55 ± 1.23,231 ± 33.5,93 ±13,not affected,about 50%,not toxic,,,
"O=c1cc(-c2ccc([N+](=O)[O-])cc2)nc2c(-c3ccc(Cl)cc3)c(Cc3ccccc3)[nH]n12 [CB-5, 2-benzyl-3-(4-chlorophenyl)-5-(4-nitrophenyl)-1H-pyrazolo[5,1-b]pyrimidin-7-one]",6.34 ± 0.93,54 ± 1,10.2 ± 1.26,901 ± 205,88 ±18,not affected,,not toxic,not reduced,,
"Oc1c(C2=NCCNC(C(F)(F)F)=C2)ccc2ccccc12 [CB-6, 2-[7-(trifluoromethyl)-2,3-dihydro-1H-1,4-diazepin-5-yl]naphthalen-1-ol]",4.93 ± 0.4,,,,74 ± 12,not affected,,not toxic,not reduced,,
"O=C1C=CC=CC1=C1NNC2(S1)C(=O)Nc1ccc(Br)cc12 (stereo not drawn) [CB-16, 5′-bromo-5-(6-oxocyclohexa-2,4-dien-1-ylidene)spiro[1,3,4-thiadiazolidine-2,3′-1H-indole]-2′-one]",6.66 ± 0.64,,,,99 ± 16,not affected,,not toxic,not reduced,,
"OCC(CCc1c[nH]c2ccccc12)c1c[nH]c2ccccc12 (stereo not drawn) [NCI-3, 2,4-bis(1H-indol-3-yl)butan-1-ol]",29.2 ± 3.64,52 ± 2,84.1 ± 14.1,143 ± 22.4,,,,,not reduced,reduced 2-NBDG transport slightly,not toxic

# From article PMC2814954 (Biochemical pharmacology, 2009)
